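Assay format: 96-well plates, 48-hour exposure. Abbreviation: GI50, concentration required for 50% inhibition of growth. Definition used: TGI = concentration required for complete inhibition of growth.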
Assays:
Assay in all cases: NCI anticancer screen, dose series, 48 h
BT-549 breast = test system: BT-549 breast
HOP-62 NSCLC = test system: HOP-62 NSCLC
MALME-3M melanoma = test system: MALME-3M melanoma
MDA-MB-231 breast = test system: MDA-MB-231 breast
NCI/ADR-RES ovarian = test system: NCI/ADR-RES ovarian
OVCAR-5 ovarian = test system: OVCAR-5 ovarian
SF-268 CNS = test system: SF-268 CNS
SK-MEL-2 melanoma = test system: SK-MEL-2 melanoma
SK-OV-3 ovarian = test system: SK-OV-3 ovarian
SR leukemia = test system: SR leukemia

Structure (SMILES)	GI50 (BT-549 breast)	TGI (BT-549 breast)	GI50 (HOP-62 NSCLC)	TGI (HOP-62 NSCLC)	GI50 (MALME-3M melanoma)	TGI (MALME-3M melanoma)	GI50 (MDA-MB-231 breast)	TGI (MDA-MB-231 breast)	GI50 (NCI/ADR-RES ovarian)	TGI (NCI/ADR-RES ovarian)	GI50 (OVCAR-5 ovarian)	TGI (OVCAR-5 ovarian)	GI50 (SF-268 CNS)	TGI (SF-268 CNS)	GI50 (SK-MEL-2 melanoma)	TGI (SK-MEL-2 melanoma)	GI50 (SK-OV-3 ovarian)	TGI (SK-OV-3 ovarian)	GI50 (SR leukemia)	TGI (SR leukemia)
Cn1cc(-c2nc(-c3c[nH]c4ccccc34)cs2)c2cccnc21	0.325 µM	17.8 µM	0.626 µM	59.9 µM	0.745 µM	86.6 µM	1.29 µM	> 100 µM	0.11 µM	3.37 µM	2.11 µM	> 100 µM	0.689 µM	> 100 µM	0.353 µM	51.8 µM	0.523 µM	> 82.4 µM	0.167 µM	> 79.4 µM
COc1ccc(CC2OC3(CCCCC3)CC3CCCCN32)cc1 (stereo not given)	–	> 100 µM	–	> 100 µM	–	> 100 µM	–	> 100 µM	–	> 100 µM	–	> 100 µM	–	> 100 µM	–	> 100 µM	–	> 100 µM	–	> 100 µM
CC(C)Cc1cc(-c2cccn2C)c(C#N)c(=O)[nH]1	> 100 µM	> 100 µM	> 100 µM	> 100 µM	> 100 µM	> 100 µM	> 100 µM	> 100 µM	> 100 µM	> 100 µM	> 100 µM	> 100 µM	> 100 µM	> 100 µM	> 100 µM	> 100 µM	> 100 µM	> 100 µM	59.7 µM	> 100 µM
COc1ccc(/C=C2\CCC(C)(CN(C)C)C2=O)cc1Br (stereo not given)	–	45.4 µM	–	97 µM	–	61.9 µM	–	68.1 µM	–	43.2 µM	–	> 100 µM	–	23.3 µM	–	36.9 µM	–	70.5 µM	–	45.7 µM
Cc1c(-c2c(F)cc(C(N)=O)c3[nH]c4c(c23)CC[C@H](C(C)(C)O)C4)cccc1-n1c(=O)c2cccc(F)c2n(C)c1=O	3.93 µM	63 µM	3.39 µM	> 100 µM	1.84 µM	28.2 µM	4.34 µM	> 100 µM	3.58 µM	> 100 µM	2.83 µM	> 100 µM	4.91 µM	> 100 µM	3.05 µM	26 µM	6.35 µM	> 100 µM	1.88 µM	5.81 µM
N/C(=N/O)NOCCC(N)C(=O)O (stereo not given)	> 100 µM	> 100 µM	> 100 µM	> 100 µM	> 100 µM	> 100 µM	> 100 µM	> 100 µM	> 100 µM	> 100 µM	> 100 µM	> 100 µM	> 100 µM	> 100 µM	> 100 µM	> 100 µM	> 100 µM	> 100 µM	> 100 µM	> 100 µM
COc1ccc2c(c1)C(=O)CC(C(N)=O)C2 (stereo not given)	–	> 100 µM	–	> 100 µM	–	> 100 µM	–	> 100 µM	–	> 100 µM	–	> 100 µM	–	> 100 µM	–	> 100 µM	–	> 100 µM	–	> 100 µM
COc1cc(-c2cc(-c3ccc(Nc4nc(Nc5ccc(Cl)cc5)nc(Nc5ccc(Cl)cc5)n4)cc3)no2)cc(OC)c1OC	13.9 µM	> 100 µM	11 µM	84.2 µM	50.3 µM	> 100 µM	5.15 µM	> 100 µM	11.3 µM	> 100 µM	27.3 µM	> 100 µM	6.05 µM	> 100 µM	5.04 µM	> 100 µM	> 100 µM	> 100 µM	1.92 µM	21.6 µM
O=C1NC(=O)/C(=C/c2ccc3nccc(-c4ccncc4)c3c2)S1	0.212 µM	1.39 µM	0.359 µM	4.26 µM	0.288 µM	2.12 µM	0.387 µM	3.92 µM	0.885 µM	> 10 µM	0.326 µM	3.89 µM	0.346 µM	5.15 µM	0.438 µM	2.25 µM	0.201 µM	0.918 µM	0.547 µM	4.88 µM
